Measured values published in paper PMC11089506 (Journal of Medicinal Chemistry, 2024).
Like-named read-outs stand apart in the source and are kept apart here.

Experiments:
MDR1 (P-gp) = assay: MDR1-MDCK II permeability assay; type: in vitro ADME; conditions: dog, MDCK-MDR1, pH 7.4
MDR1-MDCKII = assay: MDR1-MDCK II permeability assay; type: in vitro ADME; conditions: Table S6
MDR1 = assay: MDR1-MDCK II permeability assay; type: in vitro ADME; conditions: dog, MDCK-MDR1, pH 7.4, Table S6
human 5-HT2AR = human 5-HT2AR (Homo sapiens, UniProt P28223); assay: Ca2+/Fluo-4 assay, agonist mode, stable 5-HT2AR-HEK293 cells; conditions: for EC50: at least 3 independent experiments; for 5-HT2AR pEC50 ± S.E.M. / 5-HT2AR Rmax ± S.E.M.: Table S2; for 5-HT2AR Rmax (%): % of the 5-HT Rmax; for 5-HT2AR Rmax ± S.E.M.: % of the 5-HT Rmax on the same 96-well plate
human 5-HT2CR [1] = molecular target: T1, human 5-HT2CR (Homo sapiens, UniProt P28335); assay: Ca2+/Fluo-4 assay, agonist mode, stable 5-HT2CR-HEK293 cells
human 5-HT2CR [2] = molecular target: T1, human 5-HT2CR; assay: Ca2+/Fluo-4 assay, antagonist mode (5-HT EC90 as agonist), stable 5-HT2CR-HEK293 cells
[3] = system: 5-HT2AR, 5-HT2BR, and 5-HT2CR; conditions: cited from earlier work
human 5-HT2BR = molecular target: T2, human 5-HT2BR (Homo sapiens, UniProt P41595); assay: [125I]DOI competition binding assay
T2 construct: host or cells: HEK293 (membrane homogenates)
Protocol: (§1) Following incubation, the samples were filtered rapidly under vacuum through glass fiber filters (GF/B, Packard) presoaked with 0.3% polyethylenimine and rinsed several times with ice cold wash buffer (50 mM Tris-HCl, pH 7.4) using a 96-sample cell harvester (Unifilter, Packard). The filters were dried and then counted for radioactivity in a scintillation counter (Topcounter, Packard) using a scintillation cocktail (Microscint-0, Packard).

human 5-HT2CR [4] = molecular target: T1, human 5-HT2CR; assay: [125I]DOI competition binding assay
Protocol: as §1

[5] = 5-HT2CR EC50 (nM), Table 1, at least 3 independent experiments
[6] = 5-HT2CR pIC50 ± S.E.M., Table S2
[7] = read-out: 5-HT2AR EC50, Table 1
[8] = read-out: 5-HT2CR EC50, Table 1, at least 3 independent experiments
[9] = read-out: 5-HT2CR EC50, Table S2
[10] = 5-HT2CR EC50 (nM), Table 2, at least 3 independent experiments
[11] = read-out: 5-HT2AR EC50, Table 2

human 5-HT2AR, sequence (P28223 whole entry): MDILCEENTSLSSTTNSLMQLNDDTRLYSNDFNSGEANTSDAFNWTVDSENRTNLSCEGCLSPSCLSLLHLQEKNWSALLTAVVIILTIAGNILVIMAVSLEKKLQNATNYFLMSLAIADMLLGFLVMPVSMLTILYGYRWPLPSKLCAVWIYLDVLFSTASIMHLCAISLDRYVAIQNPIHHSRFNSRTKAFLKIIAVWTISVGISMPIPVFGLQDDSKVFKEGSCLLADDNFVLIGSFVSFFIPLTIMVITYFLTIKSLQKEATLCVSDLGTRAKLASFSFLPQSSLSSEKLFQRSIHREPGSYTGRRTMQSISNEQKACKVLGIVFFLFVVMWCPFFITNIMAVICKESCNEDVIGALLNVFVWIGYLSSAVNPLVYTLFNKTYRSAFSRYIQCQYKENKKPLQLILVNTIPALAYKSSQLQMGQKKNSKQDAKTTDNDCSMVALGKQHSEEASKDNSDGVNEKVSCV
T1 sequence (P28335 33-458): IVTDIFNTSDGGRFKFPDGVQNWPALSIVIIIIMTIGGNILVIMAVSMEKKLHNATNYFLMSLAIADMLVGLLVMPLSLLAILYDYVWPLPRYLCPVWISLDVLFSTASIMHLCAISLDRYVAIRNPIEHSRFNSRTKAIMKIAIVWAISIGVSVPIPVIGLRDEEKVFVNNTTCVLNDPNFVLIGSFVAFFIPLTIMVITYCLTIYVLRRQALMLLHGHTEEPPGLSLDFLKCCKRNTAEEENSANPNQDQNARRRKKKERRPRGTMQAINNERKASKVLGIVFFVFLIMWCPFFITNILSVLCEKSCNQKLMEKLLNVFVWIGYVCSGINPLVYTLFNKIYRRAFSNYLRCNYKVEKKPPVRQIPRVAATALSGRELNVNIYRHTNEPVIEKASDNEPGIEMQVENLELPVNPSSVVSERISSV
T2 sequence (P41595 whole entry): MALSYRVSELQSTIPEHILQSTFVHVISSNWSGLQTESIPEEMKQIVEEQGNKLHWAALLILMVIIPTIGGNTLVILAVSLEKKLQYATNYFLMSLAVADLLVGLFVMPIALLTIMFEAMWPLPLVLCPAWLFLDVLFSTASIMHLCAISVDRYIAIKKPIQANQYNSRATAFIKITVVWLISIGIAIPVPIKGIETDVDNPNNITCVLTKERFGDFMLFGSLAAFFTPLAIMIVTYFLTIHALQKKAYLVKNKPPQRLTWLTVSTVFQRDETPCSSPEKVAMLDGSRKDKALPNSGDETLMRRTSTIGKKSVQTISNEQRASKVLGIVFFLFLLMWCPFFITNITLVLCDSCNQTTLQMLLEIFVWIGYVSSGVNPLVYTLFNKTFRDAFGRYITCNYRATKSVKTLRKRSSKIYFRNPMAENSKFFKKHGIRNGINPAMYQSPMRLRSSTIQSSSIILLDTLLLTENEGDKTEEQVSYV

SMILES: C[C@H]1O[C@@H](O[C@H]2[C@@H](O)C[C@H](O[C@H]3[C@@H](O)C[C@H](O[C@H]4CC[C@@]5(C)[C@H](CC[C@@H]6[C@@H]5C[C@@H](O)[C@]5(C)[C@@H](C7=CC(=O)OC7)CC[C@]65O)C4)O[C@@H]3C)O[C@@H]2C)C[C@H](O)[C@@H]1O [Digoxin]
- Papp A→B at […] (MDR1 (P-gp)): 0.22 ×10⁻⁶ cm/s
- Papp B→A at […] (MDR1 (P-gp)): 12.4 ×10⁻⁶ cm/s
- Rank Papp (MDR1-MDCKII): Low
- recovery at […] (MDR1; read-out: Mean Recovery B to A): 92%

SMILES: COc1cc(C2CCCNC2)c(OC)cc1Br (stereo not drawn) [Compound 6eu, 3-(4-Bromo-2,5-dimethoxyphenyl)piperidine]
- EC50 (human 5-HT2AR; 5-HT2AR EC50 (nM), Table 1): 69 nM
- agonist activity at 5-HT2CR (in words) (human 5-HT2CR [1]): devoid of measurable agonist activity
- EC50 (human 5-HT2CR [1]; [5]): > 50000 nM
- IC50 (human 5-HT2CR [2]; 5-HT2CR IC50, Table 1): 640 nM
- IC50 (human 5-HT2CR [2]; [6]): 631 nM

SMILES: COc1cc(C2CCCNC2)c(OC)cc1C#N (stereo not drawn) [Compound 10eu, 2,5-Dimethoxy-4-(piperidin-3-yl)benzonitrile]
- 5-HT2AR pEC50 ± S.E.M. (human 5-HT2AR): 6.56 ± 0.13
- EC50 (human 5-HT2AR; [7]): 270 nM
- EC50 (human 5-HT2CR [1]; [5]): > 50000 nM
- IC50 (human 5-HT2CR [2]; [6]): ~15800 nM

SMILES: CN(C)CCc1c[nH]c2cccc(O)c12 [psilocin]
- agonist profile at 5-HT2AR, 5-HT2BR, and 5-HT2CR (in words) [3]: equipotent and equiefficacious agonist

SMILES: COc1cc(C2CCCNC2)c(OC)cc1I (stereo not drawn) [Compound 9eu, 3-(4-Iodo-2,5-dimethoxyphenyl)piperidine]
- 5-HT2AR pEC50 ± S.E.M. (human 5-HT2AR): 7.43 ± 0.02
- EC50 (human 5-HT2AR; [7]): 37 nM
- EC50 (human 5-HT2CR [1]; [5]): > 50000 nM
- IC50 (human 5-HT2CR [2]; [6]): 1100 nM

SMILES: COCCc1ccc(OCC(O)CNC(C)C)cc1 (stereo not drawn) [Metoprolol]
- Papp A→B at […] (MDR1 (P-gp)): 24.2 ×10⁻⁶ cm/s
- Rank Papp (MDR1-MDCKII): High
- recovery at […] (MDR1; read-out: Mean Recovery A to B): 97%

SMILES: CC(C)(C)NCC(O)COc1cccc2c1CC(O)C(O)C2 (stereo not drawn) [Nadolol]
- Papp A→B at […] (MDR1 (P-gp)): 0.54 ×10⁻⁶ cm/s
- Rank Papp (MDR1-MDCKII): Low
- recovery at […] (MDR1; read-out: Mean Recovery A to B): 93%

SMILES: COc1cc(C2CCCNC2)c(OC)cc1SC.Cl (stereo not drawn) [Compound 15dis, 3-(2,5-Dimethoxy-4-(methylthio)phenyl)piperidine Hydrochloride]
- 5-HT2AR pEC50 ± S.E.M. (human 5-HT2AR): 6.75 ± 0.06
- EC50 (human 5-HT2AR; [7]): 180 nM
- 5-HT2CR pEC50 ± S.E.M. (human 5-HT2CR [1]; Table S2): 5.63 ± 0.03
- EC50 (human 5-HT2CR [1]; [8]): 2300 nM

SMILES: CCc1cc(OC)c(C2CCCNC2)cc1OC.Cl (stereo not drawn) [Compound 13dis, 3-(4-Ethyl-2,5-dimethoxyphenyl)piperidine Hydrochloride]
- 5-HT2AR pEC50 ± S.E.M. (human 5-HT2AR): 6.94 ± 0.09
- EC50 (human 5-HT2AR; [7]): 110 nM
- 5-HT2CR pEC50 ± S.E.M. (human 5-HT2CR [1]; Table S2): 6.19 ± 0.12
- EC50 (human 5-HT2CR [1]; [8]): 640 nM

SMILES: CCCCc1cc(OC)c(C2CCCNC2)cc1OC.Cl (stereo not drawn) [Compound 14eu, 3-(4-Butyl-2,5-dimethoxyphenyl)piperidine Hydrochloride]
- 5-HT2AR pEC50 ± S.E.M. (human 5-HT2AR): 6.57 ± 0.06
- EC50 (human 5-HT2AR; [7]): 270 nM
- EC50 (human 5-HT2CR [1]; [5]): > 10000 nM

SMILES: COc1cc(C2CCCNC2)c(OC)cc1C.Cl (stereo not drawn) [Compound 12eu, 3-(2,5-Dimethoxy-4-methylphenyl)piperidine Hydrochloride]
- 5-HT2AR pEC50 ± S.E.M. (human 5-HT2AR): 6.98 ± 0.10
- EC50 (human 5-HT2AR; [7]): 100 nM
- EC50 (human 5-HT2CR [1]; [5]): > 10000 nM

SMILES: COc1cc(C2CCCNC2)c(OC)cc1C#N (stereo not drawn) [Compound 10dis, 2,5-Dimethoxy-4-(piperidin-3-yl)benzonitrile]
- 5-HT2AR pEC50 ± S.E.M. (human 5-HT2AR): 5.66 ± 0.06
- EC50 (human 5-HT2AR; [7]): 2200 nM
- 5-HT2CR pEC50 ± S.E.M. (human 5-HT2CR [1]; Table S2): ~ 5.0
- EC50 (human 5-HT2CR [1]; [8]): ~10000 nM
- EC50 (human 5-HT2CR [1]; [9]): ~10000 nM

SMILES: COc1cc(CC(C)N)c(OC)cc1I (racemic) [(±)-DOI, 1-(4-iodo-2,5-dimethoxyphenyl)propan-2-amine, reference compound]
- Ki (human 5-HT2BR): 1.23 nM
- Ki (human 5-HT2CR [4]): 0.51 nM

SMILES: COc1cc(C2CCCNC2)c(OC)cc1Cl (stereo not drawn) [Compound 8eu, 3-(4-Chloro-2,5-dimethoxyphenyl)piperidine]
- 5-HT2AR pEC50 ± S.E.M. (human 5-HT2AR): 7.18 ± 0.05
- EC50 (human 5-HT2AR; [7]): 66 nM
- EC50 (human 5-HT2CR [1]; [5]): > 50000 nM
- IC50 (human 5-HT2CR [2]; [6]): 871 nM

SMILES: COc1cc(C2CCCNC2)c(OC)cc1Br (stereo not drawn) [Compound 6dis, 3-(4-Bromo-2,5-dimethoxyphenyl)piperidine]
- EC50 (human 5-HT2AR; 5-HT2AR EC50 (nM), Table 1): 370 nM
- EC50 (human 5-HT2CR [1]; [5]): 1900 nM

SMILES: CCN1CCC[C@H](c2cc(OC)c(C(F)(F)F)cc2OC)C1 [(R)-20, (R)-3-(2,5-Dimethoxy-4-(trifluoromethyl)phenyl)-1-ethylpiperidine]
- EC50 (human 5-HT2AR; 5-HT2AR EC50 (nM), Table 2): > 10000 nM
- EC50 (human 5-HT2CR [1]; [10]): > 10000 nM

SMILES: CCOc1cc(C(F)(F)F)c(OC)cc1C1CCCNC1.Cl (stereo not drawn) [Compound 24dis, 3-(2-Ethoxy-5-methoxy-4-(trifluoromethyl)phenyl)piperidine Hydrochloride]
- 5-HT2AR Rmax (%) (human 5-HT2AR; Table 2): 77%
- 5-HT2AR pEC50 ± S.E.M. (human 5-HT2AR): 6.39 ± 0.08
- 5-HT2AR Rmax ± S.E.M. (human 5-HT2AR): 77 ± 7%
- EC50 (human 5-HT2AR; [11]): 410 nM
- EC50 (human 5-HT2CR [1]; [10]): > 10000 nM
- 5-HT2CR pEC50 ± S.E.M. (human 5-HT2CR [1]; Table S2): 5.56 ± 0.02
- EC50 (human 5-HT2CR [1]; [9]): 2700 nM

SMILES: CCOc1cc(C(F)(F)F)c(OC)cc1C1CCCNC1.Cl (stereo not drawn) [Compound 24eu, 3-(2-Ethoxy-5-methoxy-4-(trifluoromethyl)phenyl)piperidine Hydrochloride]
- 5-HT2AR Rmax (%) (human 5-HT2AR; Table 2): 40%
- 5-HT2AR pEC50 ± S.E.M. (human 5-HT2AR): 7.42 ± 0.10
- 5-HT2AR Rmax ± S.E.M. (human 5-HT2AR): 40 ± 3%
- EC50 (human 5-HT2AR; [11]): 38 nM
- EC50 (human 5-HT2CR [1]; 5-HT2CR EC50, Table S2): > 10000 nM

SMILES: CCCCc1cc(OC)c(C2CCCNC2)cc1OC.Cl (stereo not drawn) [Compound 14dis, 3-(4-Butyl-2,5-dimethoxyphenyl)piperidine Hydrochloride]
- 5-HT2AR pEC50 ± S.E.M. (human 5-HT2AR): 6.46 ± 0.05
- EC50 (human 5-HT2AR; [7]): 340 nM
- 5-HT2CR pEC50 ± S.E.M. (human 5-HT2CR [1]; Table S2): 5.80 ± 0.07
- EC50 (human 5-HT2CR [1]; [8]): 1600 nM
